Experimental data as given in article PMC3034214, “Inhibition of Escherichia coli glycosyltransferase MurG and Mycobacterium tuberculosis Gal transferase by uridine-linked transition state mimics” (Bioorganic & Medicinal Chemistry, 2010).

Tests used:
[1] = test system: Mycobacterium tuberculosis galactosyltransferase GlfT2; experiment: Galactosyltransferase assay ([14C]Gal incorporation into Galf(β1→6)Galf-O-C8 acceptor, membranes and cell wall fraction); format: biochemical; settings: read-out: Percentage inhibition of Mt GTase (Mycobacterium tuberculosis galactosyl transferase)
Source text: The arabinogalactan cell wall polymer of M. tuberculosis is biosynthesised through the action of a series of glycosyltransferases,[16] several of which use UDP-sugar substrates, and therefore might be inhibited by this class of compound. We have characterised a UDP-galactose-dependent galactosyltransferase activity GlfT2, which can be assayed using specific neoglycolipid acceptors in the presence of membranes and Galf(β1→6)Galf-O-C8 resulting in excellent [[14]C]Galf incorporation from UDP-[^14C]Galp, following endogenous conversion to UDP-[^14C]Galf and transferase activity (Fig. 4).[17] […] The complete chemical characterisation of the enzymatically synthesised products along with the identity of the galactosyltransferase gene product were previously reported.[17]
Liquid cultures of Mycobacterium smegmatis mc^2155 were grown at 37 °C in Luria Bertoni (LB) broth medium (Difco) supplemented with 0.05% Tween 80, biomass harvested, washed with phosphate buffered saline (PBS) and stored at −20 °C until further use. M. smegmatis cells (10 g wet weight) were washed and re-suspended in 30 ml of buffer A, containing 50 mM MOPS (adjusted to pH 8.0 with KOH), 5 mM β-mercaptoethanol and 10 mM MgCl2 at 4 °C and subjected to probe sonication (Soniprep 150, MSE Sanyo Gallenkamp, Crawley, Sussex, UK; 1 cm probe) for a total time of 10 min in 60 s pulses and 90 s cooling intervals between pulses. The sonicate centrifuged at 27,000g for 60 min at 4 °C. The resulting mycobacterial cell wall pellets were re-suspended in buffer A. Percoll (Pharmacia, Sweden) was added to yield a 60% suspension and centrifuged at 27,000g for 1 h at 4 °C. The upper, particulate diffuse cell wall enzymatically active (P60) band was collected and washed three times with buffer A and re-suspended in buffer A at a final protein concentration of 10 mg/ml. Membrane fractions were obtained by centrifugation of the 27,000g supernatant at 100,000g for 1 h at 4 °C. The supernatant was carefully removed and the membranes gently re-suspended in buffer A at a protein concentration of 20 mg/ml. Protein concentrations were determined using the BCA Protein Assay Reagent kit (Pierce Europe, Oud-Beijerland, Netherlands).
The reaction mixtures were then incubated at 37 °C for 1 h. A CHCl3/CH3OH (1:1, 533 μl) solution was then added to the incubation tubes and the entire contents centrifuged at 18,000g. The supernatant was recovered and dried under a stream of argon and re-suspended in C2H5OH/H2O (1:1, 1 ml) and loaded onto a pre-equilibrated (C2H5OH/H2O [1:1]) 1 ml Whatmann strong anion exchange (SAX) cartridge which was washed with 3 ml of ethanol. The eluate was dried and the resulting products partitioned between the two phases arising from a mixture of n-butanol (3 ml) and H20 (3 ml). The resulting organic phase was recovered following centrifugation at 3,500g and the aqueous phase was again extracted twice with 3 ml of n-butanol saturated water, the pooled extracts were back-washed twice with water saturated with n-butanol (3 ml). The n-butanol–saturated water fraction was dried and re-suspended in 200 μl of n-butanol. The total cpm of radiolabeled material extractable into the n-butanol phase was measured by scintillation counting using 10% of the labelled material and 10 ml of EcoScintA (National Diagnostics, Atlanta). The incorporation of [^14C]Gal was determined by subtracting counts present in control assays (incubation of the reaction components in the absence of the compounds).

[2] = biological target: E. coli MurG (Escherichia coli, UniProt P17443); experiment: Coupled radiochemical MraY/MurG assay ([3H]-UDPGlcNAc incorporation into lipid intermediate II); settings: for inhibition at 1000 µM: read-out: Percentage inhibition of E. coli MurG
[3] = test system: E. coli; experiment: Antibacterial testing, growth in LB in 96-well plates (OD 595 nm); format: cell-based, Escherichia coli; settings: E. coli BL21
[4] = test system: Pseudomonas putida; experiment: as above; settings: ATCC 33015
Protocol: (§1) The following procedure was performed using P. putida (ATCC 33015), M. luteus (ATCC 13513), E. coli BL21 and B. subtilis W23. A single colony of the bacterial strain was picked from an LB agar plate and grown in 10 ml of sterile LB medium overnight at 37 °C. 1 ml of this culture was then used to inoculate 50 ml of sterile LB medium at 2%. Hundred microlitres of this 2% culture was pipetted into each well of a 96-well plate. Hundred microlitres of sterile water or sterile aqueous inhibitor solution (200 μg/ml or 1 mg/ml) were then pipetted into each well and the 96-well plates were incubated at 37 °C. Bacterial growth was monitored by measuring the OD at 595 nm at 3, 6 and 24 h.

[5] = test system: Micrococcus luteus; experiment: as above; settings: read-out: Growth inhibition of M. luteus
Protocol: as §1

[6] = test system: B. subtilis; experiment: as above; settings: B. subtilis W23
Protocol: as §1

E. coli MurG, sequence (P17443 whole entry): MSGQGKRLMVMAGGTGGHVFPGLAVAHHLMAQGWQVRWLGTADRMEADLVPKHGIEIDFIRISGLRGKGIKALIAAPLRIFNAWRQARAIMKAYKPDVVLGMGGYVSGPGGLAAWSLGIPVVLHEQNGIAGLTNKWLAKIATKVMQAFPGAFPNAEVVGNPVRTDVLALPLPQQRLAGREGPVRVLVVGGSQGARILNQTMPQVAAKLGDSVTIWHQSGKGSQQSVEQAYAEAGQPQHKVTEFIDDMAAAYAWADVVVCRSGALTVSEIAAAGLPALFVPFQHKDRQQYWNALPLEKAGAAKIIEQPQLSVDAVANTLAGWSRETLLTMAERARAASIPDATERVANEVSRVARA
Mycobacterium tuberculosis galactosyltransferase GlfT2, sequence (A0R628 whole entry): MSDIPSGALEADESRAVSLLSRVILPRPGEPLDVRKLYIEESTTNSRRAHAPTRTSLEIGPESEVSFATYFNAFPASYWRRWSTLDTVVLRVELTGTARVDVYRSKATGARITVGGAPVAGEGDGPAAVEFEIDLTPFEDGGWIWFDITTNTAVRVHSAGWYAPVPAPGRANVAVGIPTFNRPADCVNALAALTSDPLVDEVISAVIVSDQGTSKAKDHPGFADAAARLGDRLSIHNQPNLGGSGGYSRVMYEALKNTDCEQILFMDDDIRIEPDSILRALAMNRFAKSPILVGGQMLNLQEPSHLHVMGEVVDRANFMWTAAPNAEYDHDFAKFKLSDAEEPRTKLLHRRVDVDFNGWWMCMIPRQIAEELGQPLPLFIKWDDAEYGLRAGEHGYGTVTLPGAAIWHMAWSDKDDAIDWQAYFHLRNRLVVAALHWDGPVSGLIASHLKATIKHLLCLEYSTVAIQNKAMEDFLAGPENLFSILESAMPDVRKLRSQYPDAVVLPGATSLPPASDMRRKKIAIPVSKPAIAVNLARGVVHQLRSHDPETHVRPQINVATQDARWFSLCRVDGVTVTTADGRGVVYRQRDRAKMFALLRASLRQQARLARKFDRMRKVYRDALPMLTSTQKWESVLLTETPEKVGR

Compound	inhibition at 1000 µM [1]	inhibition at 1000 µM [2]	further results
COc1ccccc1[C@H]1N[C@@](C)(COC(=O)CC(=O)OC[C@H]2O[C@@H](n3ccc(=O)[nH]c3=O)[C@H](O)[C@@H]2O)[C@H]2C(=O)N(c3ccccc3)C(=O)[C@@H]12 [compound 24]	0%	17%	Inhibition of / binding to MurG (in words) [2]: weak activity
COC(=O)[C@H]1[C@@H](c2ccccc2OC)N[C@@](C)(C(=O)N2CCC[C@H]2C(=O)NC[C@H]2O[C@@H](n3ccc(=O)[nH]c3=O)[C@H](O)[C@@H]2O)[C@@H]1C(=O)OC (mixture of isomers) [20c]	0%	22%	
COc1ccccc1[C@H]1N[C@@](C)(C(=O)NCC(=O)NC[C@H]2O[C@@H](n3ccc(=O)[nH]c3=O)[C@H](O)[C@@H]2O)[C@H]2C(=O)N(c3ccccc3)C(=O)[C@@H]12 (mixture of isomers) [13b]	0%	85%	Antibacterial activity against E. coli (in words) [3]: no effects; Antibacterial activity against Pseudomonas putida (in words) [4]: no effects; inhibition at 100 µg/mL [5]: 50%; Antibacterial activity against B. subtilis (in words) [6]: no effects; IC50 [2]: 0.4 mM
COC(=O)C1C(c2ccc(OC)c(OC)c2)NC2(C)C(=O)N(CC(=O)NCC3OC(n4ccc(=O)[nH]c4=O)C(O)C3O)C(=O)C12 (centres unmarked) [16d]	0%	26%	IC50 [2]: 4 mM
COC(=O)[C@H]1[C@@H](c2ccccc2)N[C@@](C)(C(=O)NCC(=O)NC[C@H]2O[C@@H](n3ccc(=O)[nH]c3=O)[C@H](O)[C@@H]2O)[C@@H]1C(=O)OC (mixture of isomers) [14a]		0%	
CCN1C(=O)C2[C@@H](C1=O)[C@@H](C(O)CO)N[C@@]2(C)C(=O)N1CCC[C@H]1C(=O)NC[C@H]1O[C@@H](n2ccc(=O)[nH]c2=O)[C@H](O)[C@@H]1O (mixture of isomers) [20d]	0%	0%	
C[C@@]1(C(=O)NCC(=O)NC[C@H]2O[C@@H](n3ccc(=O)[nH]c3=O)[C@H](O)[C@@H]2O)N[C@H](C(O)CO)[C@@H]2C(=O)N(c3ccccc3)C(=O)[C@@H]21 (mixture of isomers) [13e]	0%	0%	
COc1ccccc1[C@@H]1[C@@H]2C(=O)N(c3ccccc3)C(=O)[C@@H]2[C@H](C(=O)N(C)CC(=O)NC[C@H]2O[C@@H](n3ccc(=O)[nH]c3=O)[C@H](O)[C@@H]2O)N1C [compound 19]		31%	Inhibition of / binding to MurG (in words) [2]: did bind to MurG
COC(=O)[C@H]1[C@@H](c2ccccc2OC)N[C@@](C)(C(=O)N2CCC[C@H]2C(=O)NC[C@H]2O[C@@H](n3ccc(=O)[nH]c3=O)[C@H](O)[C@@H]2O)[C@H]1C(=O)OC (mixture of isomers) [20b]	0%	0%	
COc1ccccc1[C@H]1N[C@@](C)(COC(=O)CCC(=O)OC[C@H]2O[C@@H](n3ccc(=O)[nH]c3=O)[C@H](O)[C@@H]2O)[C@H]2C(=O)N(c3ccccc3)C(=O)[C@@H]12 (mixture of isomers) [compound 25]	0%	15%	Inhibition of / binding to MurG (in words) [2]: weak activity
ramoplanin [reference compound]			Inhibition of MurG ([2]; 20 μM ramoplanin): > 90%
COc1cccc([C@H]2N[C@@](C)(C(=O)NCC(=O)NC[C@H]3O[C@@H](n4ccc(=O)[nH]c4=O)[C@H](O)[C@@H]3O)[C@H]3C(=O)N(c4ccccc4)C(=O)[C@@H]23)c1OC (mixture of isomers) [13c]	0%	0%	
COC(=O)[C@H]1[C@@H](c2ccccc2OC)N[C@@](C)(C(=O)NCC(=O)NC[C@H]2O[C@@H](n3ccc(=O)[nH]c3=O)[C@H](O)[C@@H]2O)[C@@H]1C(=O)OC (mixture of isomers) [14b]	0%	32%	IC50 [2]: > 5 mM
COC(=O)C1C(C(O)CO)NC2(C)C(=O)N(CC(=O)NCC3OC(n4ccc(=O)[nH]c4=O)C(O)C3O)C(=O)C12 (mixture of isomers) [15e]		27%	IC50 [2]: > 5 mM
